Measurements from article PMC7567097, “A nanoluciferase SARS-CoV-2 for rapid neutralization testing and screening of anti-infective drugs for COVID-19” (Nature Communications, 2020).
Where two headings read alike, the source gives them in different places.

Assays:
SARS-CoV-2-Nluc = assay: microbe, parasite or virus in culture; assay type: cell-based
in vitro = settings: human
[1] = human exposures in the clinic, approved dosing schedules, ref [51]-[68], cited from earlier work; for Cmax: read-out: Exposure Cmax
[2] = data from literature; ref [51]-[68]; cited from earlier work
[3] = Severe acute respiratory syndrome coronavirus 2, 48 h
[4] = Severe acute respiratory syndrome coronavirus 2, read-out: EC50 (µM) Replicate 1
[5] = Severe acute respiratory syndrome coronavirus 2, read-out: EC50 (µM) Replicate 2
[6] = read-out: EC50 (µM) Replicate 1
[7] = read-out: EC50 (µM) Replicate 2

Row | SMILES | EC50 (SARS-CoV-2-Nluc; [3]) [µM] | EC50 (SARS-CoV-2-Nluc; [4]) [µM] | EC50 (SARS-CoV-2-Nluc; [5]) [µM] | CC50 (in vitro; CC50) [µM] | CC50 (in vitro; CC50 (µM) Replicate 1) [µM] | CC50 (in vitro; CC50 (µM) Replicate 2) [µM] | Cmax [1] [µM] | Plasma protein binding [2] | EC50 (SARS-CoV-2-Nluc; [6]) [µM] | EC50 (SARS-CoV-2-Nluc; [7]) [µM] | CC50 (A549-hACE2 cells) [µM] | Selectivity index (SI) = CC50/EC50 (SARS-CoV-2-Nluc) | Exposure Cmin [1] [µM] | EC50 (SARS-CoV-2-Nluc; read-out: EC50) [µM] | EC50 (SARS-CoV-2-Nluc; Severe acute respiratory syndrome coronavirus 2, read-out: projected protein adjusted potency (paEC50)) [µM] | EC50 (SARS-CoV-2-Nluc) [µM]
1 | Nc1nc(=O)n([C@@H]2CS[C@H](CO)O2)cc1F [Emtricitabine (FTC), Emtricitabine] | > 10 | > 10 | > 10 | > 50 | > 50 | > 50 | 7.9 | 4% | – | – | – | – | – | – | – | –
2 | O=C(NCc1c(F)cc(F)cc1F)c1cn2c(c(O)c1=O)C(=O)N1[C@H]3CC[C@H](C3)O[C@@H]1C2 [Bictegravirt] | – | – | – | – | – | – | – | – | > 10 | > 10 | > 50 | – | – | – | – | –
3 | Cc1cccc(C)c1OCC(=O)N[C@@H](Cc1ccccc1)[C@@H](O)C[C@H](Cc1ccccc1)NC(=O)[C@H](C(C)C)N1CCCNC1=O [Lopinavir] | 9 ± 0.42 | 9.3 | 8.7 | 31.5 ± 2.5 | 29.8 | 33.3 | – | 98–99% | – | – | – | – | – | – | – | –
4 | CC(C)CN(C[C@@H](O)[C@H](Cc1ccccc1)NC(=O)O[C@H]1CCOC1)S(=O)(=O)c1ccc(N)cc1 [Amprenavir] | > 10 | > 10 | > 10 | > 50 | > 50 | > 50 | – | 90% | – | – | – | – | – | – | – | –
5 | O=C1Nc2ccc(Cl)cc2[C@@](C#CC2CC2)(C(F)(F)F)O1 [Efavirenz] | > 9.6 | 9.6 | > 10 | 37.6 ± 10.7 | 45.1 | 30 | – | 99.5–99.8% | – | – | – | <3.9 | 5.6 | – | – | –
6 | C[C@@]1(O)[C@H](O)[C@@H](CO)O[C@H]1n1ccc2c(N)ncnc21 [MK-0608] | – | – | – | – | – | – | – | – | > 10 | > 10 | > 50 | – | – | > 10 | – | –
7 | CC(C)(C)NC(=O)[C@@H]1C[C@@H]2CCCC[C@@H]2CN1C[C@@H](O)[C@H](Cc1ccccc1)NC(=O)[C@H](CC(N)=O)NC(=O)c1ccc2ccccc2n1 [Saquinavir] | 8.95 ± 0.31 | 8.73 | 9.17 | 35.1 ± 11.7 | 43.4 | 26.8 | – | – | – | – | – | 3.9 | 0.65 | – | – | –
8 | CC(C)(C)NC(=O)[C@@H]1CN(Cc2cccnc2)CCN1C[C@@H](O)C[C@@H](Cc1ccccc1)C(=O)N[C@H]1c2ccccc2C[C@H]1O [Indinavir] | > 10 | > 10 | > 10 | > 50 | > 50 | > 50 | – | – | – | – | – | – | – | – | – | –
9 | CCOC(=O)/C=C/[C@H](C[C@@H]1CCNC1=O)NC(=O)[C@@H](CC(=O)[C@@H](NC(=O)c1cc(C)on1)C(C)C)Cc1ccc(F)cc1 [Rupintrivir] | 1.87 ± 0.47 | 1.53 | 2.2 | > 50 | > 50 | > 50 | – | – | – | – | – | >26.7 | – | – | – | –
10 | COc1ccc2c(O[C@@H]3C[C@H]4C(=O)N[C@]5(P(=O)(O)Cc6c(F)cccc6F)C[C@H]5CCCCCCC[C@H](NC(=O)OC5CCCC5)C(=O)N4C3)cc(-c3csc(NC(C)C)n3)nc2c1Cl [GS-9256] | > 10 | > 10 | > 10 | 31.8 ± 10.9 | 39.5 | 24.1 | – | – | – | – | – | – | – | – | – | –
11 | Cc1c(O)cccc1C(=O)N[C@@H](CSc1ccccc1)[C@H](O)CN1C[C@H]2CCCC[C@H]2C[C@H]1C(=O)NC(C)(C)C [Nelfinavir] | 0.77 ± 0.32 | 0.542 | 0.993 | 12 ± 1.3 | 11.1 | 13 | 8.3 | >98% | – | – | – | 15.7 | 2.6 | – | ~30 | –
12 | NC(=O)c1ncn([C@@H]2O[C@H](CO)[C@@H](O)[C@H]2O)n1 [Ribavirin] | > 10 | > 10 | > 10 | > 50 | > 50 | > 50 | – | – | – | – | – | – | – | – | – | –
13 | N#C[C@@]1(c2ccc3c(N)ncnn23)O[C@H](CO)[C@@H](O)[C@H]1O [GS-441524] | 0.869 ± 0.289 | 1.07 | 0.665 | > 50 | > 50 | > 50 | – | – | – | – | – | – | – | – | – | –
14 | CC(C)[C@@]1(C(=O)N[C@H]2CC(=O)O[C@]2(O)CF)CC(c2nccc3ccccc23)=NO1 [Nivocasan (GS-9450), Nivocasan] | – | – | – | – | – | – | – | – | > 10 | > 10 | > 50 | – | – | > 10 | – | –
15 | CC(C)CN(C[C@@H](O)[C@H](Cc1ccccc1)NC(=O)O[C@H]1CO[C@H]2OCC[C@H]21)S(=O)(=O)c1ccc(N)cc1 [Darunavir] | > 10 | > 10 | > 10 | > 50 | > 50 | > 50 | – | – | – | – | – | – | – | – | – | –
16 | Cc1cc(/C=C/C#N)cc(C)c1Nc1ccnc(Nc2ccc(C#N)cc2)n1 [Rilpivirine] | 7.8 ± 1.04 | 7.06 | 8.53 | 14.6 ± 1.6 | 13.5 | 15.8 | 0.83 | 99.7% | – | – | – | – | 0.30 | – | – | –
17 | C=CC(=O)N1CCC[C@@H](n2nc(-c3ccc(Oc4ccccc4)cc3)c3c(N)ncnc32)C1 [Ibrutinib] | > 10 | – | – | > 50 | – | – | – | – | – | – | – | – | – | – | – | –
18 | O=C(NCc1c(F)cc(F)cc1F)c1cn2c(c(O)c1=O)C(=O)N1[C@H]3CC[C@H](C3)O[C@@H]1C2 [Bictegravir] | > 10 | – | – | > 50 | – | – | – | >99% | – | – | – | – | – | – | – | –
19 | CCC(CC)O[C@@H]1C=C(C(=O)O)C[C@H](N)[C@H]1NC(C)=O [Oseltamivir carboxylate] | > 10 | > 10 | > 10 | > 50 | > 50 | > 50 | – | – | – | – | – | – | – | – | – | –
20 | CC(C)c1nc(CN(C)C(=O)N[C@@H](CCN2CCOCC2)C(=O)N[C@H](CC[C@H](Cc2ccccc2)NC(=O)OCc2cncs2)Cc2ccccc2)cs1 [Cobicistat] | 2.7 | 2.6 | 2.88 | 47.3 ± 2.5 | 45.6 | 49.1 | – | – | – | – | – | 17.3 | – | – | – | 2.74 ± 0.2
21 | Nc1ccn(C[C@@H](CO)OCP(=O)(O)O)c(=O)n1 [Cidofovir] | > 10 | > 10 | > 10 | > 50 | > 50 | > 50 | – | – | – | – | – | – | – | – | – | –
22 | CC(C)OC(=O)[C@H](C)N[P@](=O)(CO[C@H](C)Cn1cnc2c(N)ncnc21)Oc1ccccc1 [Tenofovir alafenamide (TAF), Tenofovir alafenamide] | > 10 | > 10 | > 10 | > 50 | > 50 | > 50 | 0.4 | 80% | – | – | – | – | – | – | – | –
23 | CC[C@@H]1C[C@]1(NC(=O)[C@@H]1C[C@@H](Oc2cc(-c3csc(NC(C)C)n3)nc3c(Cl)c(OCCN4CCOCC4)ccc23)CN1C(=O)[C@@H](NC(=O)O[C@@H]1C[C@@H]2C[C@@H]2C1)C(C)(C)C)C(=O)O [GS-9451] | > 10 | > 10 | > 10 | > 50 | > 50 | > 50 | – | – | – | – | – | – | – | – | – | –
24 | CCC[C@@]1(CCc2ccccc2)CC(O)=C([C@H](CC)c2cccc(NS(=O)(=O)c3ccc(C(F)(F)F)cn3)c2)C(=O)O1 [Tipranavir] | 8.65 ± 0.16 | 8.53 | 8.76 | 28.4 ± 0.5 | 28.8 | 28.1 | 130 | 99.9% | – | – | – | 3.3 | 30.8 | – | – | –
25 | Nc1ccn([C@@H]2O[C@@](CO)(CCl)[C@@H](O)[C@H]2F)c(=O)n1 [ALS-8112] | > 10 | > 10 | > 10 | > 50 | > 50 | > 50 | – | – | – | – | – | – | – | – | – | –
26 | O=C(Nc1ccc([N+](=O)[O-])cc1Cl)c1cc(Cl)ccc1O [Niclosamide] | 0.715 ± 0.332 | 0.95 | 0.48 | 1.28 ± 0.23 | 1.44 | 1.12 | – | – | – | – | – | 1.8 | – | – | – | –
27 | C=CC(=O)N1CCC[C@@H](n2nc(-c3ccc(Oc4ccccc4)cc3)c3c(N)ncnc32)C1 [Ibrutinibj] | – | – | – | – | – | – | – | – | > 10 | > 10 | > 50 | – | – | – | – | –
28 | CC#CC(=O)N1CC[C@@H](n2c(=O)n(-c3ccc(Oc4ccccc4)cc3)c3c(N)ncnc32)C1 [Tirabrutinib] | > 10 | > 10 | > 10 | > 50 | > 50 | > 50 | – | – | – | – | – | – | – | – | – | –
